In patent publication US7342027B2 (Yuhan Corporation, priority 2002, dated 2008):

How the values were obtained:
[1] = target: T1, Recombinant human cathepsin K (Homo sapiens, UniProt P43235); assay: Inhibition of cathepsin K activity (Z-Phe-Arg-AMC fluorescence assay); assay type: biochemical; details: 25 uM Z-Phe-Arg-AMC, pH 5.5, 1 hour at 37° C.
T1 construct: made in house
T1 sequence (P43235 115-329): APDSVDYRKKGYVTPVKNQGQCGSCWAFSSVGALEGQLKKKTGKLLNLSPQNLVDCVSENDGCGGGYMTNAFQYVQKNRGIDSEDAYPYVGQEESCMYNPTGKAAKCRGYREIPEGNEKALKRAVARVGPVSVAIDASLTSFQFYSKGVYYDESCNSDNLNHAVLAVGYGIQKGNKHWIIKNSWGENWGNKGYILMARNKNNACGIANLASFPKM
Summary of the method: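 Z-Phe-Arg-AMC at 25 uM in 100 mM Na acetate pH 5.5 with 20 mM cysteine, 5 mM EDTA and 2% final DMSO; reaction started by adding enzyme, then 1 hour at 37° C. Fluorescence read at ex 360/em 460 nm; IC50 is the concentration giving 50% inhibition.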

[2] = target: T2, Cathepsin C (Sigma, C8511) (Bos taurus, UniProt Q3ZCJ8); assay: Selectivity study: cathepsin C (Gly-Phe-pNA); assay type: biochemical; details: 1 hour at 37° C., read-out: Cathepsins (IC50, nM) C
T2 construct: purchased Sigma C8511
Description: (§1) Test 2: Selectivity Study
(§2) Selectivity study for the compounds of the present invention was performed using cathepsin C (Sigma, C8511), cathepsin G (Calbiochem, 219373), cathepsin H (Calbiochem, 219388), cathepsin L (Calbiochem, 219402), and cathepsin S (Eur. J. Biochem. 236, 558 (1996) as enzyme sources.
(§3) Cathepsin C (Sigma, C8511) was dissolved in D.W. buffer (pH 5.5). All inhibitors were prepared in dimethyl sulfoxide (DMSO). In vitro assays for cathepsin C were conducted with Gly-Phe-pNA (Sigma, G-0142) as a substrate. Samples were pre-incubated for 10 minutes at 37° C. Reaction was initiated by the addition of enzyme to samples, which were then incubated for 1 hour at 37° C. The absorbance of p-nitroaniline released was monitored at 405 nm using spectrophotometer.
(§4) The concentrations of the test compounds, which inhibit 50% of cathepsin s C, G, H, L and S activity, are represented as IC50 in Table 2.

[3] = target: T3, Cathepsin G (Calbiochem, 219373) (Homo sapiens, UniProt P08311); assay: Selectivity study: cathepsin G (Suc-Ala-Ala-Pro-Phe-pNA); assay type: biochemical; details: 1 hour at 25° C., read-out: Cathepsins (IC50, nM) G
T3 construct: purchased Calbiochem 219373
T3 sequence (P08311 21-244): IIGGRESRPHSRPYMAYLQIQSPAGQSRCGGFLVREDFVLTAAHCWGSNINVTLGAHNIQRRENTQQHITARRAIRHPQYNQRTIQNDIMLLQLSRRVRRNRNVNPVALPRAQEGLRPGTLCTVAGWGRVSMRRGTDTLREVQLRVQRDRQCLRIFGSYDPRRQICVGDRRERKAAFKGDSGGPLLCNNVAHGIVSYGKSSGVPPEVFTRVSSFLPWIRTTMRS
Description: as §1, §2
as §3, with “Cathepsin G (Calbiochem, 219373)” for “Cathepsin C (Sigma, C8511)”, “in 50 mM NaOAc and 150 mM NaCl” for “in D.W.”, “cathepsin G” for “cathepsin C”, “with Suc-Ala-Ala-Pro-Phe-pNA (Calbiochem, 219407)” for “with Gly-Phe-pNA (Sigma, G-0142)”, “at 25°” for “at 37°”
as §4

[4] = target: T4, Cathepsin H (Calbiochem, 219388) (Homo sapiens, UniProt P09668); assay: Selectivity study: cathepsin H (L-Arg-pNA); assay type: biochemical; details: 1 hour at 40° C., read-out: Cathepsins (IC50, nM) H
T4 construct: purchased Calbiochem 219388
T4 sequence (P09668 98-335): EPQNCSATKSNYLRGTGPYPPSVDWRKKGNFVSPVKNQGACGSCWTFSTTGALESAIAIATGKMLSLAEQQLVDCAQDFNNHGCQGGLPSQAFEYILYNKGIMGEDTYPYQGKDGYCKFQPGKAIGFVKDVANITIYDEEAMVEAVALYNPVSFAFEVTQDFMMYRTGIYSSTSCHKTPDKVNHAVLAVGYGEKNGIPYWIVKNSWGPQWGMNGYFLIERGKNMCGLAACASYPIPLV
Description: as §1, §2
Cathepsin H (Calbiochem, 219388) was dissolved in 20 mM NaOAc, 1 mM EDTA-2Na and 100 mM NaCl buffer (pH 4.6). All inhibitors were prepared dimethyl sulfoxide (DMSO). In vitro assays for cathepsin H were conducted with L-Arg-pNA (BACHEM, 1-1160) as a substrate. Samples were pre-incubated for 5 minutes at 40° C. Reaction was initiated by the addition of enzyme to samples, which were then incubated for 1 hour at 40° C. The absorbance of p-nitroaniline released was monitored at 405 nm using spectrophotometer.
as §4

[5] = target: T5, Cathepsin L (Calbiochem, 219402) (Homo sapiens, UniProt P07711); assay: Selectivity study: cathepsin L (Z-Phe-Arg-AMC); assay type: biochemical; details: 1 hour at 25° C., read-out: Cathepsins (IC50, nM) L
T5 construct: purchased Calbiochem 219402
Description: as §1, §2
Cathepsin L (Calbiochem, 219402) was dissolved in 50 mM NaOAc buffer (pH 5.0). All inhibitors were prepared in dimethyl sulfoxide (DMSO). […] Samples were pre-incubated for 5 minutes at 25° C. Reaction was initiated by the addition of enzyme to samples, which were then incubated for 1 hour at 25° C. The fluorescence of AMC (7-amino-4-methylcoumarin) was monitored at 460 nm (excitation wavelength 360 nm), using fluorescence spectrophotometer.
as §4

[6] = target: Recombinant human Cathepsin S (Homo sapiens, UniProt P25774); assay: Selectivity study: cathepsin S (Z-Val-Val-AMC); assay type: biochemical; details: 30 minutes at 37° C., read-out: Cathepsins (IC50, nM) S
Description: as §1, §2
Recombinant human Cathepsin S (Eur. J. Biochem. 236, 558 (1996) was dissolved in 0.1 M NaOAc 1 mM EDTA-4Na buffer (pH 5.5). All inhibitors were prepared in dimethyl sulfoxide (DMSO). In vitro assays for cathepsin S were conducted with Z-Val-Val-AMC (BACHEM, 1-1160) as a substrate. Samples were pre-incubated for 10 minutes at 4° C. Reaction was initiated by the addition of enzyme to samples, which were then incubated for 30 minutes at 37° C. The florescence of AMC (7-amino-4-methylcoumarin) released was monitored at 465 nm (excitation wavelength 360 nm), using fluorescence spectrophotometer.
as §4

T5 sequence (P07711 114-333): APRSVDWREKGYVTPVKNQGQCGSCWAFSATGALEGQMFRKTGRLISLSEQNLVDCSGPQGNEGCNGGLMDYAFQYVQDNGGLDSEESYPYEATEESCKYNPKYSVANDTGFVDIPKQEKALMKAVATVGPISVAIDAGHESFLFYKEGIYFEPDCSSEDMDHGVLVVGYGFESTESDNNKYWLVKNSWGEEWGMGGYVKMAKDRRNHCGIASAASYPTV
T2 sequence (Q3ZCJ8 25-463): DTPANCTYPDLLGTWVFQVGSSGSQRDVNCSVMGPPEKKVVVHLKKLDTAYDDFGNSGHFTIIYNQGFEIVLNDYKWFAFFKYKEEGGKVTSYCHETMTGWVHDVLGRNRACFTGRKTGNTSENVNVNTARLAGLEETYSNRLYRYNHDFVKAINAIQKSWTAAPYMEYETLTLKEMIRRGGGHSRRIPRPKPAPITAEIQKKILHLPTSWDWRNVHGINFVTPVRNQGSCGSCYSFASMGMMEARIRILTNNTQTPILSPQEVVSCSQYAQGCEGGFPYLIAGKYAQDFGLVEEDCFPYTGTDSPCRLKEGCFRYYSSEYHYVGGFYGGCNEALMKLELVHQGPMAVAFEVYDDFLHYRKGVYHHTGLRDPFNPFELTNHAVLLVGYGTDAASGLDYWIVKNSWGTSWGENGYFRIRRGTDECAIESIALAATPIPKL
Recombinant human Cathepsin S, sequence (P25774 115-331): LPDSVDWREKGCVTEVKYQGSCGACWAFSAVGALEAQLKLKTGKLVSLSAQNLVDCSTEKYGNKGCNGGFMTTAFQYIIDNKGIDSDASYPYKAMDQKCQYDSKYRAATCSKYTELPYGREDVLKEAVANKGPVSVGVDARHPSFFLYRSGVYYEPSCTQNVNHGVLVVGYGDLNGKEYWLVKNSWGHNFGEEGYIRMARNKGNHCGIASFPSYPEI

IC50 [1]: 8.17 nM
IC50 [2]: 382 nM
IC50 [3]: > 240 nM
IC50 [4]: > 240 nM
IC50 [5]: 138 nM
IC50 [6]: 133 nM
melting point: 219 to 220 °C
SMILES: CS(=O)(=O)c1ccccc1N1CCC(NC(=O)C2(NC(=O)c3cc4ccccc4o3)CCCCC2)C(=O)C1 (stereo not shown) [Example 1, 4-[N-[1-[N-(benzofuran-2-ylcarbonyl)amino]cyclohexanecarbonyl]amino]-1-(2-methylsulfonylphenyl)piperidin-3-one]
